From PubChem BioAssay AID256 (DTP/NCI, 2004)
Inconclusive results and toxic doses are left out. The calls were made as follows: active = survival T/C of 150% or more; inactive = T/C below 125% in these data.

Test system: CD2F1 mice, L1210 leukemia ip, survival T/C
Test: NCI In Vivo Anticancer Drug Screen. Data for tumor model L1210 Leukemia (intraperitoneal) in CD2F1 (CDF1) mice
Settings: endpoint: mean survival time, higher = longer survival
Procedure, shortened: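 Vehicle-treated tumor-bearing mice served as controls (C) for compound-treated mice (T). Reported figure is T divided by C.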

[1] = dose: 100.0 mg/kg/injection, schedule: Q01DX009 (ip), vehicle: saline with Tween-80
[2] = dose: 100.0 mg/kg/injection, schedule: Q04DX003 (ip), vehicle: saline with Tween-80
[3] = dose: 200.0 mg/kg/injection, schedule: Q01DX009 (ip), vehicle: saline with Tween-80
[4] = dose: 200.0 mg/kg/injection, schedule: Q04DX003 (ip), vehicle: saline with Tween-80
[5] = dose: 400.0 mg/kg/injection, schedule: Q01DX009 (ip), vehicle: saline with Tween-80
[6] = dose: 400.0 mg/kg/injection, schedule: Q04DX003 (ip), vehicle: saline with Tween-80
[7] = dose: 100.0 mg/kg/injection, schedule: Q04DX002 (ip), vehicle: saline with Tween-80
[8] = dose: 200.0 mg/kg/injection, schedule: Q04DX002 (ip), vehicle: saline with Tween-80

Measured: T/C

CC(=O)c1cccc2cccc([N+](=O)[O-])c12
inactive: [1] 101 % of control | [2] 102 % of control | [3] 102 % of control | [4] 102 % of control | [5] 102 % of control | [6] 100 % of control

COc1ccccc1NC(=O)Oc1cccc(C)c1
inactive: [7] 91 % of control | [8] 88 % of control | dose: 400.0 mg/kg/injection, schedule: Q04DX002 (ip), vehicle: saline with Tween-80 91 % of control

C(=Nc1ccccc1)c1ccc(C=Nc2ccccc2)cc1
inactive: [1] 106 % of control | dose: 100.0 mg/kg/injection, schedule: Q04DX003 (ip), vehicle: saline sonified 97 % of control | [3] 94 % of control | dose: 200.0 mg/kg/injection, schedule: Q04DX003 (ip), vehicle: saline sonified 102 % of control | dose: 400.0 mg/kg/injection, schedule: Q04DX003 (ip), vehicle: saline sonified 97 % of control

O=C1/C(=C/c2ccc([N+](=O)[O-])cc2)CCc2ccccc21
inactive: dose: 12.5 mg/kg/injection, schedule: Q01DX009 (ip), vehicle: Klucel (hydroxypropylcellulose) (HPC) 97 % of control | dose: 25.0 mg/kg/injection, schedule: Q01DX009 (ip), vehicle: Klucel (hydroxypropylcellulose) (HPC) 96 % of control | dose: 50.0 mg/kg/injection, schedule: Q01DX009 (ip), vehicle: Klucel (hydroxypropylcellulose) (HPC) 94 % of control | dose: 100.0 mg/kg/injection, schedule: Q01DX009 (ip), vehicle: Klucel (hydroxypropylcellulose) (HPC) 92 % of control | dose: 200.0 mg/kg/injection, schedule: Q01DX009 (ip), vehicle: Klucel (hydroxypropylcellulose) (HPC) 91 % of control

COC1=CC23CCCN2CCc2cc4c(cc2C3C1O)OCO4 (stereo not drawn)
inactive: dose: 12.5 mg/kg/injection, schedule: Q01DX009 (ip), vehicle: water 97 % of control | dose: 25.0 mg/kg/injection, schedule: Q01DX009 (ip), vehicle: water 101 % of control | dose: 50.0 mg/kg/injection, schedule: Q01DX009 (ip), vehicle: water 100 % of control | dose: 100.0 mg/kg/injection, schedule: Q01DX009 (ip), vehicle: water 95 % of control | dose: 200.0 mg/kg/injection, schedule: Q01DX009 (ip), vehicle: water 97 % of control

O=C(O)CNC(=O)CCNC(=O)OCc1ccccc1
inactive: [1] 95 % of control | [3] 93 % of control | [5] 93 % of control

O=[N+]([O-])O.[Sc]
inactive: dose: 6.25 mg/kg/injection, schedule: Q01DX009 (ip), vehicle: saline 93 % of control | dose: 12.5 mg/kg/injection, schedule: Q01DX009 (ip), vehicle: saline 90 % of control | dose: 25.0 mg/kg/injection, schedule: Q01DX009 (ip), vehicle: saline 88 % of control | dose: 100.0 mg/kg/injection, schedule: Q01DX001 (ip), vehicle: saline 100 % of control | dose: 400.0 mg/kg/injection, schedule: Q01DX001 (ip), vehicle: saline 93 % of control

CCC(=O)c1ccccc1NC(C)=O
inactive: [4] 95 % of control | [6] 97 % of control

CCOC(=O)CN1C(=O)c2ccccc2C1=O
inactive: dose: 12.5 mg/kg/injection, schedule: Q01DX009 (ip), vehicle: other 97 % of control | dose: 25.0 mg/kg/injection, schedule: Q01DX009 (ip), vehicle: other 97 % of control | dose: 50.0 mg/kg/injection, schedule: Q01DX009 (ip), vehicle: other 98 % of control | dose: 50.0 mg/kg/injection, schedule: Q01DX009 (ip), vehicle: saline with Tween-80 88 % of control | dose: 100.0 mg/kg/injection, schedule: Q01DX009 (ip), vehicle: other 93 % of control | [1] 103 % of control | dose: 200.0 mg/kg/injection, schedule: Q01DX009 (ip), vehicle: other 97 % of control | [3] 92 % of control

Nc1ccc(-c2ccccc2-c2ccccc2)cc1
inactive: dose: 100.0 mg/kg/injection, schedule: Q01DX009 (ip), vehicle: acetone 101 % of control | dose: 200.0 mg/kg/injection, schedule: Q01DX009 (ip), vehicle: acetone 105 % of control

C=CCc1cc(O)c(CC=C)cc1O
inactive: [7] 95 % of control | [8] 95 % of control

CCCCCCCCCCCCCCCCOc1ccc(-c2cc(Cl)c3cc(S(=O)(=O)F)ccc3n2)cc1S(=O)(=O)F
inactive: [1] 97 % of control | [3] 98 % of control | [4] 87 % of control | [6] 95 % of control

CN(CC(=O)O)C(=S)c1ccccc1
inactive: [2] 98 % of control | [4] 104 % of control | [6] 95 % of control
